From patent publication US20230167127A1, “COMPOUNDS AND THEIR USE IN THE TREATMENT OF BACTERIAL INFECTION” (Hoffmann-La Roche Inc., priority 2020, published 2023)

These molecules were tested on Escherichia coli ATCC 25922 (assay: 50% growth inhibitory concentration (IC50) determination, Iso-Sensitest broth dilution). Details: Escherichia coli, ATCC25922, 16 h, strain Escherichia coli ATCC 25922; 10-point broth dilution, optical density at 600 nm over 16 h; read-out: Escherichia coli growth inhibition IC50.
Type: cell-based
Method: 50% Growth Inhibitory Concentration (IC50) Determination
The in vitro antimicrobial activity of the compounds was determined according to the following procedure:
The assay used a 10-point Iso-Sensitest broth dilution method to measure quantitatively the in vitro
ATCC 25922, Acinetobacter baumannii ATCC 17961, Klebsiella pneumoniae ATCC 43816 and Staphylococcus aureus ATCC 29213.
Stock compounds in DMSO were serially twofold diluted (e.g. range from 50 to 0.097 μM final concentration) in 384 wells microtiter plates and inoculated with 50 μL of the bacterial suspension in Iso-
ell of 50 μL/well. Microtiter plates were incubated at 35±2° C.
Bacterial cell growth was determined with the measurement of optical density at λ=600 nm each 20 minutes over a time course of 16 h.
Growth inhibition was calculated during the logarithmic growth of the bacterial cells with
Table 1 provides the 50% growth inhibitory concentrations (IC50) in micromoles per liter of the compounds of present invention obtained against the strain Escherichia coli ATCC 25922.

| SMILES | IC50 |
| --- | --- |
| CNC(=O)COc1cc(Cl)c2c(c1)C(N)C(CNCCC1CN(c3cnc4c(n3)NC(=O)CO4)C(=O)O1)C2 (racemic) [Example 399, 2-[[rac-2,3-trans-3-Amino-7-chloro-2-[[2-[2-oxo-3-(3-oxo-4H-pyrazino[2,3-b][1,4]oxazin-6-yl)-1,3-oxazolidin-5-yl]ethylamino]methyl]-2,3-dihydro-1H-inden-5-yl]oxy]-N-methylacetamide; formic acid] | 1120 nM |
| Cc1ncc(F)c2c1CC(N)(CCNCC1CN(c3ccc4c(n3)NC(=O)CO4)C(=O)O1)C2 (stereo not drawn) [Example 280, 6-[5-[[2-(6-amino-4-fluoro-1-methyl-5,7-dihydrocyclopenta[c]pyridin-6-yl)ethylamino]methyl]-2-oxo-1,3-oxazolidin-3-yl]-4H-pyrido[3,2-b][1,4]oxazin-3-one] | 844 nM |
| N#Cc1cccc2c1CC(CNCCC1CN(c3ccc4c(n3)NC(=O)CO4)C(=O)O1)C2N (racemic) [Example 228, rac-1,2-trans-1-Amino-2-[[2-[2-oxo-3-(3-oxo-4H-pyrido[3,2-b][1,4]oxazin-6-yl)-1,3-oxazolidin-5-yl]ethylamino]methyl]-2,3-dihydro-1H-indene-4-carbonitrile] | 174 nM |
| N#Cc1c(OCC2CCCN2)ccc2c1CC(CNCCC1CN(c3ccc4c(n3)NC(=O)CO4)C(=O)O1)C2 (stereo not drawn) [Example 141, 2-[[2-[2-oxo-3-(3-oxo-4H-pyrido[3,2-b][1,4]oxazin-6-yl)-1,3-oxazolidin-5-yl]ethylamino]methyl]-5-(pyrrolidin-2-ylmethoxy)-2,3-dihydro-1H-indene-4-carbonitrile; formic acid] | 186 nM |
| CCn1cc(C(=O)O)c(=O)c2ccc3c(c21)CC(CNCCC1CN(c2ccc4c(n2)NC(=O)CO4)C(=O)O1)C3 (stereo not drawn) [Example 275, 1-Ethyl-4-oxo-8-[[2-[2-oxo-3-(3-oxo-4H-pyrido[3,2-b][1,4]oxazin-6-yl)-1,3-oxazolidin-5-yl]ethylamino]methyl]-8,9-dihydro-7H-cyclopenta[h]quinoline-3-carboxylic acid] | 592 nM |
| N#Cc1c(OCC2(N)CC2)ncc2c1CC(CNCCC1CN(c3ccc4c(n3)NC(=O)CO4)C(=O)O1)C2 (stereo not drawn) [Example 198, 3-[(1-aminocycopropyl)methoxy]-6-[[2-[2-oxo-3-(3-oxo-4H-pyrido[3,2-b][1,4]oxazin-6-yl)-1,3-oxazolidin-5-yl]ethylamino]methyl]-6,7-dihydro-5H-cyclopenta[c]pyridine-4-carbonitrile] | < 97.7 nM |
| Cc1nnc(C)c2c1CC(CNCCC1CN(c3ccc4c(n3)NC(=O)CS4)C(=O)O1)C2 (stereo not drawn) [Example 285, 5-[2-[(1,4-dimethyl-6,7-dihydro-5H-cyclopenta[d]pyridazin-6-yl)methylamino]ethyl]-3-(3-oxo-4H-pyrido[3,2-b][1,4]thiazin-6-yl)-1,3-oxazolidin-2-one] | 925 nM |
| Cc1ncc(F)c2c1C[C@H](CNCC[C@@H]1CN(c3cnc4c(n3)NC(=O)CO4)C(=O)O1)C2 [Example 430] | < 97.7 nM |
| O=C1COc2ncc(N3CC(CCNCC4Cc5cc(OCCn6ccnc6)cc(F)c5C4)OC3=O)nc2N1 (stereo not drawn) [Example 332, 6-[5-[2-[[4-fluoro-6-(2-imidazol-1-ylethoxy)-2,3-dihydro-1H-inden-2-yl]methylamino]ethyl]-2-oxo-1,3-oxazolidin-3-yl]-4H-pyrazino[2,3-b][1,4]oxazin-3-one] | 184 nM |
| Cc1ncc(F)c2c1CC(NCCCc1cn(-c3cnc4c(n3)NC(=O)CO4)c(=O)o1)C2 (single isomer, unassigned; enantiomer a) [Example 367, 6-[5-[3-[(4-Fluoro-1-methyl-6,7-dihydro-5H-cyclopenta[c]pyridin-6-yl)amino]propyl]-2-oxo-1,3-oxazol-3-yl]-4H-pyrazino[2,3-b][1,4]oxazin-3-one, Enantiomer A] | < 97.7 nM |
| O=C1COc2ccc(N3CC(CCNCC4Cc5cccc(Cl)c5C4)OC3=O)nc2N1 (single isomer, unassigned; isomer a) [Example 6, 6-[5-[2-[(4-chloro-2,3-dihydro-1H-inden-2-yl)methylamino]ethyl]-2-oxo-1,3-oxazolidin-3-yl]-4H-pyrido[3,2-b][1,4]oxazin-3-one, Isomer A] | < 97.7 nM |
| N#Cc1cc(OCC2(N)CC2)cc2c1CC(CCNCC1CN(c3ccc4c(n3)NC(=O)CO4)C(=O)O1)C2 (stereo not drawn) [Example 196, 6-((1-aminocyclopropyl)methoxy)-2-(2-(((2-oxo-3-(3-oxo-3,4-dihydro-2H-pyrido[3,2-b][1,4]oxazin-6-yl)oxazolidin-5-yl)methyl)amino)ethyl)-2,3-dihydro-1H-indene-4-carbonitrile] | < 97.7 nM |
| Cc1nc2c(c3c1CC(CNCCC1CN(c4cnc5c(n4)NC(=O)CO5)C(=O)O1)C3)CCN2C (stereo not drawn) [Example 424, 6-[5-[2-[(5,8-Dimethyl-5,7-diazatricyclo[7.3.0.0^2,6]dodeca-1,6,8-trien-11-yl)methylamino]ethyl]-2-oxo-1,3-oxazolidin-3-yl]-4H-pyrazino[2,3-b][1,4]oxazin-3-one] | 227 nM |
| NC1c2cccc(Cl)c2CC1CNC1CC2(C1)CN(c1ccc3c(n1)NC(=O)CO3)C(=O)O2 (racemic) [Example 210, 2,4-cis-6-[6-oxo-2-[[rac-1,2-trans-1-amino-4-chloro-2,3-dihydro-1H-inden-2-yl]methylamino]-5-oxa-7-azaspiro[3.4]octan-7-yl]-4H-pyrido[3,2-b][1,4]oxazin-3-one] | 295 nM |
| O=C1COc2ccc(N3C(=O)OC4CC(NCCC5Cc6cccc(Cl)c6C5)CCC43)nc2N1 (racemic) [Example 32, 6-[rac-3a,7a-trans-6,7a-cis-6-[2-(4-chloro-2,3-dihydro-1H-inden-2-yl)ethylamino]-2-oxo-3a,4,5,6,7,7a-hexahydro-1,3-benzoxazol-3-yl]-4H-pyrido[3.2-b][1,4]oxazin-3-one] | 710 nM |

Next, values leading:

| IC50 | SMILES |
| --- | --- |
| < 97.7 nM | NCCOc1ncc2c(c1Cl)CC(CNCCC1CN(c3ccc4c(n3)NC(=O)CO4)C(=O)O1)C2 (stereo not drawn) [Example 174, 6-[5-[2-[[3-(2-aminoethoxy)-4-chloro-6,7-dihydro-5H-cyclopenta[c]pyridin-6-yl]methylamino]ethyl]-2-oxo-1,3-oxazolidin-3-yl]-4H-pyrido[3,2-b][1,4]oxazin-3-one] |
| 131 nM | CC(N)COc1cc2c(c(Cl)n1)CC(CNCCC1CN(c3ccc4c(n3)NC(=O)CO4)C(=O)O1)C2 (stereo not drawn) [Example 144, 6-[5-[2-[[3-(2-aminopropoxy)-1-chloro-6,7-dihydro-5H-cyclopenta[c]pyridin-6-yl]methylamino]ethyl]-2-oxo-1,3-oxazolidin-3-yl]-4H-pyrido[3,2-b][1,4]oxazin-3-one; formic acid] |
| 103 nM | NCCOc1cc(Cl)c2c(c1)CC(NCCCC1CN(c3ccc4c(n3)NC(=O)CO4)C(=O)O1)C2 (stereo not drawn) [Example 179, 6-[5-[3-[[6-(2-aminoethoxy)-4-chloro-2,3-dihydro-1H-inden-2-yl]amino]propyl]-2-oxo-1,3-oxazolidin-3-yl]-4H-pyrido[3,2-b][1,4]oxazin-3-one] |
| < 97.7 nM | CNC(=O)COc1cc(F)c2c(c1F)CC(CNCCC1CN(c3ccc4c(n3)NC(=O)CO4)C(=O)O1)C2 (stereo not drawn) [Example 394, 2-[[4,7-difluoro-2-[[2-[2-oxo-3-(3-oxo-4H-pyrido[3,2-b][1,4]oxazin-6-yl)-1,3-oxazolidin-5-yl]ethylamino]methyl]-2,3-dihydro-1H-inden-5-yl]oxy]-N-methylacetamide] |
| 336 nM | Cc1ncc(F)c2c1CC(CN[C@H]1C[C@H](C3CN(c4cnc5c(n4)NC(=O)CO5)C(=O)O3)C1)C2 (stereo partly drawn) [Example 361, 6-[5-[trans-3-[(4-fluoro-1-methyl-6,7-dihydro-5H-cyclopenta[c]pyridin-6-yl)methylamino]cyclobutyl]-2-oxo-1,3-oxazolidin-3-yl]-4H-pyrazino[2,3-b][1,4]oxazin-3-one] |
| 440 nM | O=C1COc2ccc(N3CC(NCCNC4Cc5cccc(F)c5C4)CC3=O)nc2N1 (stereo not drawn) [Example 120, 6-[4-[2-[(4-fluoro-2,3-dihydro-1H-inden-2-yl)amino]ethylamino]-2-oxopyrrolidin-1-yl]-4H-pyrido[3,2-b][1,4]oxazin-3-one; formic acid] |
| < 97.7 nM | Cc1ncc2c(c1F)CC(CNCC[C@H]1CN(c3cnc4c(n3)NC(=O)CO4)C(=O)O1)C2 (stereo partly drawn) [Example 338, 6-[(5S)-5-[2-[(4-fluoro-3-methyl-6,7-dihydro-5H-cyclopenta[c]pyridin-6-yl)methylamino]ethyl]-2-oxo-1,3-oxazolidin-3-yl]-4H-pyrazino[2,3-b][1,4]oxazin-3-one] |

Same assay, conditions: strain Escherichia coli ATCC 25922; 10-point broth dilution, optical density at 600 nm over 16 h; read-out: Escherichia coli growth inhibition IC50

| IC50 | SMILES |
| --- | --- |
| 176 nM | O=C1COc2ccc(N3CC(CCNCC4Cc5c(Cl)cccc5C4O)OC3=O)nc2N1 (racemic) [Example 231, 6-[2-Oxo-5-[2-[[rac-1,2-cis-4-chloro-1-hydroxy-2,3-dihydro-1H-inden-2-yl]methylamino]ethyl]-1,3-oxazolidin-3-yl]-4H-pyrido[3,2-b][1,4]oxazin-3-one] |
| < 97.7 nM | O=C1COc2ncc(N3CC(CC(O)CNC4Cc5cccc(F)c5C4)OC3=O)nc2N1 (single isomer, unassigned; isomer a) [Example 83, 6-[5-[3-[(4-fluoro-2,3-dihydro-1H-inden-2-yl)amino]-2-hydroxypropyl]-2-oxo-1,3-oxazolidin-3-yl]-4H-pyrazino[2,3-b][1,4]oxazin-3-one, Isomer A; formic acid] |
